# Measurements from patent publication US8158661B2, “GSK-3 inhibitors” (Noscira, S.A., priority 2004, dated 2012).
# How the values were obtained:
# [1] = target: Recombinant human glycogen synthase kinase 3β (Homo sapiens, UniProt P49841); assay: GSK-3β inhibition; type: biochemical; settings: recombinant human GSK-3β, GS-2 62.5 μM, ATP 12.5 μM, 30 min at 30° C.
# Experimental: The GSK-3β activity was determined by incubation of a mixture of recombinant human GSK-3 enzyme, a phosphate source and GSK-3 substrate in the presence and in the absence of the corresponding test compound, and by measuring the GSK-3 activity of this mixture.
# The final assay volume was 20 μl. After incubation for 30 minutes at 30° C., 15 μl aliquots were spotted onto P81 phosphocellulose papers. Filters were washed four times for at least 10 minutes each and counted with 1.5 ml of scintillation cocktail in a scintillation counter.
# [2] = target: T1, Bovine serum albumin (Fraction V) (Bos taurus, UniProt P02769); assay: Binding to BSA (incubation, HPLC-UV/MS); type: in vitro ADME; settings: compound and BSA 1 mM each, 30 minutes at room temperature
# T1 construct: Bovine serum albumin (Fraction V) (Sigma); purchased Sigma
# T1 sequence (P02769 25-607): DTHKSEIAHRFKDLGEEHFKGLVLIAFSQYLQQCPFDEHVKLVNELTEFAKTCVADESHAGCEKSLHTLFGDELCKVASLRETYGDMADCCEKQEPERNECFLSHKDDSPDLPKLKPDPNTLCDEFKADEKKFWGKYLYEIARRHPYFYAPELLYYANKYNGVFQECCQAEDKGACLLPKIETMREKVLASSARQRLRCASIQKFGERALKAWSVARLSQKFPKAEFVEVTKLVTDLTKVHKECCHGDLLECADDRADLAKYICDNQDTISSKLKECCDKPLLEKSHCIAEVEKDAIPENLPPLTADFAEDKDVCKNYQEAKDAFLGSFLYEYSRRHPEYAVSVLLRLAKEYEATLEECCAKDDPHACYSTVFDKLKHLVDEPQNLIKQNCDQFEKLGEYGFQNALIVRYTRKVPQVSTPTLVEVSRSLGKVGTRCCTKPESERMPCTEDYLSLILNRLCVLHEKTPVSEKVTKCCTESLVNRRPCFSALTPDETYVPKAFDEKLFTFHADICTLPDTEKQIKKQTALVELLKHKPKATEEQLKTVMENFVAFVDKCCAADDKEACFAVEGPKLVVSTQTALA
# Experimental: The compounds (working solution at 1 mM) were incubated during 30 minutes at room temperature with Glutathione (Sigma) and Bovine serum albumin (Fraction V) (Sigma) at equimolecular concentrations (1 mM). After this time the solution was filtrated and analysed by HPLC-UV/MS.
# HPLC was performed with a symmetry C18 (2.1×150 mm, 3.5 μm) column using a Waters Alliance 2695 with a 2996 photodiode array and ZQ2000 mass spectrometer used for the analytical separation and for UV and mass determination. The gradient used for the elution was: […]
# Flux: 0.25 mL/min; temp: 30° C.; Detection: 250 nm; Injection Volume: 10 μL
# [3] = Brain permeation and pharmacokinetics after oral and intravenous administration; type: in vivo, C57/BL6 mice; settings: mice
# Experimental: C57/BL6 mice (15-30 g) from Charles River laboratories Spain were used in this study. […] Water was available ad libitum. Animals were fasted for 4 hours before treatment, but with water ad libitum. They were fed 2 hours after administration.
# The route of administration was a single oral administration at […] (10 mL/kg) and single intravenous administration at 2 mg/kg (10 mL/kg). An additional experiment was performed at 200 mg/kg by the oral route only to determine proportionality of absorption.
# Blood was heparinized, and after centrifugation (3000 rpm, 10 mins, 5° C.), two plasma aliquots stored at −20° C. and −30° C. until analysis (HPLC/MS-MS).
# Recombinant human glycogen synthase kinase 3β, sequence (P49841 whole entry): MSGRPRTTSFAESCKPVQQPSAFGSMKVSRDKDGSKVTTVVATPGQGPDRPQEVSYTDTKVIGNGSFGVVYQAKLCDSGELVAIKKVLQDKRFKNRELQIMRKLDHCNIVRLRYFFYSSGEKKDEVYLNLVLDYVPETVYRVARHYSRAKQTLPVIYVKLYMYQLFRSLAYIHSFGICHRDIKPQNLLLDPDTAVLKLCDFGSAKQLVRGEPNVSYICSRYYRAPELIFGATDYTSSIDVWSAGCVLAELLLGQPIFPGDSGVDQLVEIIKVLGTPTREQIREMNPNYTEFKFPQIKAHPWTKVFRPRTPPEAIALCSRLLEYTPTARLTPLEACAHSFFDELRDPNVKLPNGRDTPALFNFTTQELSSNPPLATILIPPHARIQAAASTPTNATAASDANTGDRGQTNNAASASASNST
Compound,IC50 [1] [µM],"% unbinding compound, albumin [2] [%]",melting point [°C],further results
"O=c1sn(-c2ccc3c(c2)OCO3)c(=O)n1Cc1ccccc1 [Compound 5, 4-Benzyl 2-((3,4-methylenedioxy)phenyl)-[1,2,4]thiadiazolidine-3,5-dione]",4.2,65.5,–,–
"O=c1sn(C23CC4CC(CC(C4)C2)C3)c(=O)n1Cc1ccccc1 [Compound 3, 2-(1-adamantyl)-4-benzyl-[1,2,4]thiadiazolidine-3,5-dione]",> 50,54.0,128.8,–
"O=c1sn(-c2ccccc2Cc2ccccc2)c(=O)n1Cc1ccccc1 [Compound 9, 4-Benzyl-2-(2-benzyl-phenyl)-[1,2,4]thiadiazolidine-3,5-dione]",8,91.4,154.9,–
"O=c1sn(-c2cccc3ccccc23)c(=O)n1Cc1ccccc1 [Compound 2, 4-Benzyl-2-naphthalen-1-yl-[1,2,4]thiadiazolidine-3,5-dione]",–,98.0,–,"bioavailability ([3]; both sexes, C57/BL6, mouse, plasma, oral 20 mg/kg vs intravenous 2 mg/kg): 31.9%; half-life ([3]; both sexes, C57/BL6, mouse, plasma, oral administration of 20 mg/kg): 6 h; Cmax ([3]; both sexes, C57/BL6, mouse, single oral dose 20 mg/kg, plasma): 905 ng/mL; Cmax ([3]; both sexes, C57/BL6, mouse, single oral dose 200 mg/kg, plasma): 9060 ng/mL; Absorption from the GI tract ([3]; after oral administration): quickly absorbed; Levels in the brain ([3]; both after oral and intravenous administration): detected in the brain"
"Cc1ccc(Cn2sc(=O)n(Cc3ccccc3)c2=O)cc1 [Compound 4, 4-Benzyl-2-(4-methyl-benzyl)-[1,2,4]thiadiazolidine-3,5-dione]",1.8,67.2,–,–
"O=c1sn(CCc2ccccc2)c(=O)n1Cc1ccccc1 [Compound 1, 2-Phenethyl-4-benzyl-(1,2,4)thiadiazolidine-3,5-dione]",3,80.2,–,–
"O=c1sn(C(c2ccccc2)c2ccccc2)c(=O)n1Cc1ccccc1 [Compound 6, 4-Benzyl-2-diphenylmethyl-1,2,4-thiadiazolidine-3,5-dione]",2,84.0,111.5,–
"COc1ccc(Cn2sc(=O)n(Cc3ccccc3)c2=O)cc1 [Compound 7, 4-Benzyl-2-(4-methoxybenzyl)-[1,2,4]thiadiazolidine-3,5-dione]",< 50,68.3,–,–
"Cc1cccc(C(C)(C)C)c1-n1sc(=O)n(Cc2ccccc2)c1=O [Compound 8, 4-Benzyl-2-(2-tert-butyl-6-methyl-phenyl)-(1,2,4)thiadiazolidine-3,5-dione]",3,62.3,89.8,–
"O=c1sn(Cc2ccccc2)c(=O)n1Cc1ccccc1 [2,4-dibenzyl-1,2,4-thiadiazolidine-3,5-dione, reference compound]",–,57.0,–,–
"O=c1sn(-c2ccc(Oc3ccccc3)cc2)c(=O)n1Cc1ccccc1 [Compound 10, 4-Benzyl-2-(4-phenoxyphenyl)-[1,2,4]thiadiazolidine-3,5-dione]",3,98.9,88.8,–
